One data set concerns the target T1, human SSTR2 (Homo sapiens, UniProt P30874).
T1 construct: Myc; expressed in transfected cells
In words: Evaluation of SSTR2 agonistic activity using cells expressing human SSTR2 (suppression of forskolin-stimulated cAMP production, SSTR2-CHO-K1). The format is cell-based. The method, then:
Evaluation of SSTR2 Agonistic Activity Using Cells Expressing Human SSTR2
(1) Isolation of Human SSTR2 Gene
Human brain cDNA was purchased from Ambion (catalogue No.: 7962; Lot No.: 040200121). PCR primers, hSSTR2_F1_XhoI: 5′-[…]-3′ (SEQ ID NO: 1) and hSSTR2_R1_EcoRI: 5′-[…]-3′ (SEQ ID NO: 2) were designed on the basis of the sequence GenBank NM_001050.
PCR reaction (95° C. for 2 min.→[98° C. for 10 sec., 60° C. for 30 sec. and 68° C. for 90 sec.]×30 cycles) was carried out using the human brain cDNA as a template and using KOD-plus-(TOYOBO Co., Ltd.). The amplified PCR product was subjected to 1% agarose gel electrophoresis, purified using QIAquick Gel Extraction Kit (QIAGEN) and digested with restriction enzymes XhoI and EcoRI. The digested fragments were ligated to an expression vector (pIRESneo-Myc) using the DNA Ligation Kit Ver. 2 (Takara) and used for transformation of E. coli DH5a. The plasmid pIRESneo-Myc/hSSTR2 was prepared and the DNA sequence thereof was confirmed.
(2) Culture of CHO-K1 Cells
CHO-K1 (−) was cultured in Ham's F-12 medium (containing foetal bovine serum (10%), penicillin (100 U/mL) and streptomycin (0.1 mg/mL)). The transduced cells were cultured in the same medium supplemented with Geneticin (1 mg/mL).
(3) Transduction of CHO-K1 Cells
CHO-K1(−) cells were transduced with the plasmid pIRESneo-Myc/hSSTR2 using Lipofectamine 2000 (Invitrogen). After 48 hours, selection was carried out by replacing the medium with the one containing 1 mg/mL of Geneticin to establish a stable overexpressing cell line (SSTR2-CHO-K1).
(4) Evaluation of SSTR2 Agonistic Activity
The human SSTR2 agonistic activity of a test compound was evaluated according to the following procedures by using a suppression activity of intracellular cyclic AMP (cAMP) production by forskolin stimulation as an index. SSTR2-CHO-K1 cells suspended in Ham's F-12 medium (containing foetal bovine serum (10%), penicillin (100 U/mL) and streptomycin (0.1 mg/mL)) supplemented with 0.25 mg/mL of Geneticin were inoculated into a 96-well plate at a density of 4.0×10^4 cells/0.1 mL per well. On the next day, the medium was removed and washed twice with 0.1 mL of wash buffer [0.1% bovine serum albumin (BSA), 20 mmol/L 4-(2-hydroxyethyl)-1-piperazineethane sulphonic acid (HEPES)-containing Hank's balanced salt solution (HBSS)]. An assay buffer [[…] 3-isobutyl-1-methylxanthine (IBMX), 0.1% BSA, 20 mmol/L HEPES-containing HBSS] was added to the wells at 0.06 mL per well and the plate was incubated for 15 minutes under the conditions of 5% carbon dioxide and 37° C. Thereafter, an assay buffer containing a test compound at a concentration twice as high as the final concentration and 0.02 mmol/L of forskolin was added to wells at 0.06 mL per well and the plate was incubated for 30 minutes under the conditions of 5% carbon dioxide and 37° C. Thereafter, the Assay/Lysis buffer included in the cAMP-Screen® kit (available from Applied Biosystems) was added to wells at 0.12 mL per well and the plate was incubated for 30 minutes under the conditions of 5% carbon dioxide and 37° C. The concentration of cAMP in samples were measured by ELISA according to the instruction of the kit.

Data set [1] has as its system growth hormone (GH) secretion. In words: Evaluation of suppression of growth hormone (GH) secretion using rats (GHRH-induced). It counts as in vivo. As to conditions: Rattus norvegicus, Procedure (B): oral administration 8 hours beforehand, read-out: percentage of suppression of GH secretion. The method, then:
Evaluation of Suppression of Growth Hormone (GH) Secretion Using Rats
[Procedure (A): Administration of a Test Compound 30 Minutes Beforehand]
A medium (distilled water (Otsuka distilled water, Otsuka Pharmaceutical Factory, […]) IGS rats (Charles River Laboratories Japan, Inc.)) and after 27 minutes, the animals were administered with 50 mg/kg of pentobarbital sodium (Somnopentyl, Kyoritsu Seiyaku Corporation) via the tail vein for anaesthesia. Three minutes after administration of pentobarbital sodium, the rats were administered with 0.01 mg/kg of growth hormone-releasing hormone (GHRH, Bachem) via the tail vein to induce GH secretion. In order to measure the blood GH concentration, 0.2 mL of blood was collected through the jugular vein at 5 minutes after administration of GHRH. The collected blood was centrifuged at 4° C., 13,000×g for 5 minutes to obtain plasma. The blood GH concentration was measured by using Rat/Mouse Growth Hormone ELISA (Millipore) following the instruction of the kit. The percentage (%) of suppression of GH secretion was determined by using the obtained blood GH concentration and the equation {[suppression (%) of GH secretion]=([blood GH concentration of the group administered with the medium]−[blood GH concentration of the group administered with a test compound])/[blood GH concentration of the group administered with the medium]×100}. In the equation, the group administered with the medium represents the group of animals administered with the medium and the group administered with a test compound represents the group of animals administered with a test compound dissolved in the medium.
[Procedure (B): Administration of a Test Compound 8 Hours Beforehand]
A medium (distilled water (Otsuka distilled water, Otsuka Pharmaceutical Factory, […]) IGS rats (Charles River Laboratories Japan, Inc.)) and after 7 hours and 57 minutes, the animals were administered with 50 mg/kg of pentobarbital sodium (Somnopentyl, Kyoritsu Seiyaku Corporation) via the tail vein for anaesthesia. Three minutes after administration of pentobarbital sodium, the rats were administered with 0.01 mg/kg of growth hormone-releasing hormone (GHRH, Bachem) via the tail vein to induce GH secretion. The rest of the procedure is the same as in [Procedure (A)] described above.

Data set [2] is described as follows: Evaluation of cytotoxicity using cultured human hepatocytes (intracellular ATP). The format is cell-based. The conditions noted are these: read-out: IC50 of cytotoxicity (concentration at which 50% of the luminescence is suppressed). The method, then:
Evaluation of Cytotoxicity Using Cultured Human Hepatocytes
Frozen adhesive human hepatocytes were thawed, suspended in a hepatocellular medium (HCM) purchased from Lonza and inoculated to a 96-well plate coated with collagen. The culture medium of the hepatocytes cultured overnight in an incubator (5% carbon dioxide, 95% air, 37° C.) was exchanged to the medium containing a test compound at a concentration of 0, 12.5, 25, 50, 100, 200 or 400 (×10^−6 mol/L) and the cells were further cultured for 24 hours. Cytotoxicity was evaluated by measuring the intracellular ATP concentration. Specifically, using the Promega Celltiter-Glo luminescent assay kit available from Promega, cells were lysed in the assay buffer included in the kit and the concentration of ATP released from the cells was measured according to the luminescence resulting from luciferin-luciferase enzyme activity. The luminescence was measured on the SpectraMax plate reader from Molecular Devices. The extent of cytotoxicity of a test compound is represented by the concentration (IC50) of the compound at which 50% of the luminescence is suppressed.

Data set [3] can be described thus: Human hepatic microsome stability test. It counts as in vitro ADME. As to conditions: human hepatic microsomes 1 mg/mL; 60 minutes; test compound 0.001 mmol/L; 37° C. The method, then:
Human Hepatic Microsome Stability Test
To a reaction vessel heated to 37° C. in a water bath, 0.392 mL of phosphate buffer (0.1 mol/L, pH 7.4) containing human hepatic microsomes (1 mg/mL, Xenotech) and NADPH-Co-factor (NADP+1.3 mmol/L, BD-Bioscience) was added and pre-incubated for 5 minutes. A 50% acetonitrile solution (0.008 mL) containing 0.05 mmol/L of a test compound was added thereto to initiate the enzyme reaction (final concentration of the test compound: 0.001 mmol/L). Immediately after initiation of the reaction and at 60 minutes thereafter, 0.050 mL of the reaction solution was respectively collected, which was immediately added to an acetonitrile solution (0.2 mL) containing an internal standard (45 nmol/L, 1-[3-(3,5-dimethylphenyl)-4-quinolinyl]-4-piperidineamine) to terminate the enzyme reaction.
The residual rate (%), which is indicative of stability of the test compound, was calculated using the ratio of peak areas between the test compound and the internal substance determined by LC/MS/MS (TSQ Quantum Discovery MAX, Thermo) analysis of the sample thus prepared by the above procedures followed by filtration, and the equation: {[residual rate (%)=[peak area of a test compound in a sample at 60 minutes after initiation of the reaction/peak area of the internal standard]/[peak area of the test compound in the sample immediately after initiation of the reaction/peak area of the internal standard]×100}.

T1 sequence (P30874 whole entry): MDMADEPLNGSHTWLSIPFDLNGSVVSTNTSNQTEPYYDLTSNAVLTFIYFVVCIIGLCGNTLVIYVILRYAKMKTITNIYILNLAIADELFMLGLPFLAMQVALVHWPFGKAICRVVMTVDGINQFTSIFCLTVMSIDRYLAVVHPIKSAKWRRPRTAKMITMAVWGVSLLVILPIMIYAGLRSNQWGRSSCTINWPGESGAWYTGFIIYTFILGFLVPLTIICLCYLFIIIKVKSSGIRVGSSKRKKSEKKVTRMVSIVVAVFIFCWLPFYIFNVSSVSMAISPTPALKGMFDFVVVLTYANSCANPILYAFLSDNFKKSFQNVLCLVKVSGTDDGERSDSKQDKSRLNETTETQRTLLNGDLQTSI

What is called EC50 is the concentration giving half of the maximal effect. Molecule `CO[C@@H]1CN(c2c(-c3ccc(C(F)(F)F)cc3)cncc2-c2cc(Cl)cc(Cl)c2)CC[C@@H]1N` (racemic) [Example 2(7), rac-(3R,4S)-1-{3-(3,5-dichlorophenyl)-5-[4-(trifluoromethyl)phenyl]-4-pyridinyl}-3-methoxy-4-piperidineamine] showed an EC50 at human SSTR2 of 0.17 nM.

`NC1CCN(c2c(NC(=O)c3cccc(Cl)c3)cncc2-c2cc(F)cc(Cl)c2)CC1` [Example 7, N-[4-(4-amino-1-piperidinyl)-5-(3-chloro-5-fluorophenyl)-3-pyridinyl]-3-chlorobenzamide]: the response on human SSTR2 was half-maximal at 0.34 nM (EC50). Besides, in data set [1] (10 mg/kg), the inhibition in vivo at 10 mg/kg worked out at 93%. Moreover, in data set [2], the IC50 at 24 h is 74000 nM. The same molecule had a residual rate in data set [3] of 100.0%.

On human SSTR2, `CO[C@@H]1CN(c2c(-c3ccc(C(F)(F)F)cc3)cncc2-c2cc(Cl)cc(Cl)c2)CC[C@H]1N` (racemic) [Example 2(6), rac-(3R,4R)-1-{3-(3,5-dichlorophenyl)-5-[4-(trifluoromethyl)phenyl]-4-pyridinyl}-3-methoxy-4-piperidineamine] gave a 50% effective concentration (EC50) of 0.47 nM.

With `NC1CCN(c2c(-c3ccc(OC(F)F)cc3)cncc2-c2cc(F)cc(Cl)c2)CC1` [Example 2(1), 1-{3-(3-chloro-5-fluorophenyl)-5-[4-(difluoromethoxy)phenyl]-4-pyridinyl}-4-piperidineamine], the EC50 on human SSTR2 was found to be 0.041 nM. Also, in data set [1], the inhibition in vivo at 1 mg/kg turned out to be 91%. Also, the IC50 at 24 h in data set [2] was 19000 nM. Also, the residual rate in data set [3] was found to be 100.0%.

For the molecule `CCNC1CCN(c2c(-c3ccc(C(C)(C)C#N)cc3)cncc2-c2cc(Cl)cc(Cl)c2)CC1` [Example 5(4), 2-(4-{5-(3,5-dichlorophenyl)-4-[4-(ethylamino)-1-piperidinyl]-3-pyridinyl}phenyl)-2-methylpropanenitrile], at human SSTR2, it took 0.021 nM to reach a half-maximal effect (EC50). Moreover, in data set [1], the inhibition in vivo at 1 mg/kg is 89%. Besides, in data set [2], the IC50 at 24 h is 17000 nM. The molecule further showed a residual rate in data set [3] of 74.9%.

In turn, `CCNC1CCN(c2c(/C=C(\C)c3cccc(F)c3)cncc2-c2cc(Cl)cc(Cl)c2)CC1` [Example 5(5), 1-{3-(3,5-dichlorophenyl)-5-[(1E)-2-(3-fluorophenyl)-1-propen-1-yl]-4-pyridinyl}-N-ethyl-4-piperidineamine] came in with an EC50 on human SSTR2 of 0.071 nM. The inhibition in vivo at 1 mg/kg in data set [1] turned out to be 85%. Moreover, in data set [2], the IC50 at 24 h worked out at 17000 nM. The residual rate in data set [3] amounted to 88.6%.

For `NC1CCN(c2c(-c3ccc(C(F)(F)F)cc3)cncc2-c2cc(Cl)cc(Cl)c2)CC1` [Example 1, 1-{3-(3,5-dichlorophenyl)-5-[4-(trifluoromethyl)phenyl]-4-pyridinyl}-4-piperidineamine], it took 0.031 nM to reach a half-maximal effect on human SSTR2 (EC50). Also, in data set [1], the inhibition in vivo at 1 mg/kg stood at 93%. In addition, in data set [2], the IC50 at 24 h is 19000 nM. The residual rate in data set [3] is 94.6%.

The molecule `Cc1cc(C)cc(-c2cncc(-c3nc4c(C)cc(C)cc4[nH]3)c2N2CCC(N)CC2)c1` [formula (P), reference compound] gave a residual rate in data set [3] of 1.2%.

`Cc1cc(C)cc(-c2cnc3cc(Cl)c(-c4cnn(C)c4)cc3c2OCC[C@H]2CCCCN2)c1` [formula (M), reference compound]: in data set [2], the IC50 at 24 h was 13000 nM.

On human SSTR2, `N[C@@H]1CCN(c2c(-c3ccc(C(F)(F)F)cc3)cncc2-c2cc(Cl)cc(Cl)c2)C[C@@H]1O` [Example 6, (3S,4R)-4-amino-1-{3-(3,5-dichlorophenyl)-5-[4-(trifluoromethyl)phenyl]-4-pyridinyl}-3-piperidinol] showed an EC50 of 0.027 nM. The inhibition in vivo at 1 mg/kg in data set [1] was found to be 89%. This molecule returned a residual rate in data set [3] of 89.9%.

For `N#Cc1cccc(/C=C/c2cncc(-c3cc(Cl)cc(Cl)c3)c2N2CCC(N)CC2)c1` [Example 4(1), 3-{(E)-2-[4-(4-amino-1-piperidinyl)-5-(3,5-dichlorophenyl)-3-pyridinyl]vinyl}benzonitrile], the EC50 at human SSTR2 was determined as 0.038 nM. Besides, the inhibition in vivo at 1 mg/kg in data set [1] was 84%. For the same molecule, the residual rate in data set [3] worked out at 49.9%.

The record behind these values is US9643951B2, “Compound having somatostatin receptor agonistic activity and pharmaceutical use thereof” (ONO PHARMACEUTICAL CO., LTD., priority 2013, dated 2017).
